Assay results from the supplement of paper PMC11061612.

Tests used:
Experiment in all cases: combination Emax (second highest fraction inhibited in the dose matrix, 72 h); higher = more inhibition; extreme values may be limits of the assay
769-P (Kidney Carcinoma) = tested on: 769-P (Kidney Carcinoma)
Procedure, shortened: (§1)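 Cell lines in DMEM/F12 or RPMI with 10% FBS were plated in 1536-well plates, held 24 hours at 37°C, 5% CO2, then given two-drug dose matrices for 72 hours (DMSO typically 0.2%). Viability was read by CellTiter-Glo 2.0 luminescence and scaled as inhibition from 0 (vehicle wells) to 1 (blank wells). Combination Emax is the second-highest inhibition in the matrix; Bliss excess is observed combination effect minus expected EA + EB − EA·EB, EA and EB being single-agent effects.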

[1] = tested on: A253 (Head and Neck Carcinoma)
Procedure, shortened: as §1

[2] = tested on: DMS-53 (Small Cell Lung Carcinoma)
Procedure, shortened: as §1

EW-7 (Ewing's Sarcoma) = tested on: EW-7 (Ewing's Sarcoma)
Procedure, shortened: as §1

[3] = tested on: GCT (Other Solid Carcinomas)
Procedure, shortened: as §1

[4] = tested on: HCC1395 (Breast Carcinoma)
Procedure, shortened: as §1

[5] = tested on: HT55 (Colorectal Carcinoma)
Procedure, shortened: as §1

[6] = tested on: JHH-2 (Hepatocellular Carcinoma)
Procedure, shortened: as §1

[7] = tested on: JHU-022 (Oral Cavity Carcinoma)
Procedure, shortened: as §1

KP-N-YN (Neuroblastoma) = tested on: KP-N-YN (Neuroblastoma)
Procedure, shortened: as §1

[8] = tested on: LS-411N (Colorectal Carcinoma)
Procedure, shortened: as §1

[9] = tested on: LU-165 (Small Cell Lung Carcinoma)
Procedure, shortened: as §1

[10] = tested on: MDA-MB-436 (Breast Carcinoma)
Procedure, shortened: as §1

NB13 (Neuroblastoma) = tested on: NB13 (Neuroblastoma)
Procedure, shortened: as §1

[11] = tested on: NCI-H441 (Lung Adenocarcinoma)
Procedure, shortened: as §1

[12] = tested on: NCI-H716 (Colorectal Carcinoma)
Procedure, shortened: as §1

PEO1 (Ovarian Carcinoma) = tested on: PEO1 (Ovarian Carcinoma)
Procedure, shortened: as §1

[13] = tested on: SW620 (Colorectal Carcinoma)
Procedure, shortened: as §1

WM1552C (Melanoma) = tested on: WM1552C (Melanoma)
Procedure, shortened: as §1

[14] = tested on: UACC-812 (Breast Carcinoma)
Procedure, shortened: as §1

SMILES | combination Emax (769-P (Kidney Carcinoma)) | combination Emax [1] | combination Emax [2] | combination Emax (EW-7 (Ewing's Sarcoma)) | combination Emax [3] | combination Emax [4] | combination Emax [5] | combination Emax [6] | combination Emax [7] | combination Emax (KP-N-YN (Neuroblastoma)) | combination Emax [8] | combination Emax [9] | combination Emax [10] | combination Emax (NB13 (Neuroblastoma)) | combination Emax [11] | combination Emax [12] | combination Emax (PEO1 (Ovarian Carcinoma)) | combination Emax [13] | combination Emax (WM1552C (Melanoma)) | combination Emax [14]
NC1(C(=O)N[C@@H](CCO)c2ccc(Cl)cc2)CCN(c2ncnc3[nH]ccc23)CC1 [Capivasertib] + CCN(CCO)CCCOc1ccc2c(Nc3cc(CC(=O)Nc4cccc(F)c4)[nH]n3)ncnc2c1 [AZD2811] (first compound max 10 µM, 7x7, partner max 1 µM) | 0.422 | 0.695 | 0.238 | 0.885 | 0.636 | 0.455 | 0.576 | 0.587 | 0.446 | 0.608 | 0.557 | 0.47 | 0.264 | 0.534 | 0.317 | 0.457 | 0.418 | 0.328 | 0.447 | –
CN(CCO)CC[C@H](CSc1ccccc1)Nc1ccc(S(=O)(=O)NC(=O)c2ccc(N3CCC([C@@H](O)c4ccccc4-c4ccc(Cl)cc4)CC3)cc2)cc1S(=O)(=O)C(F)(F)F [AZD4320] + CN(C)CCCOc1ccc(-c2ccc3ncc4c(c3c2)n(C2CCOCC2)c(=O)n4C)cn1 [AZD0156] (first compound max 1 µM, 7x7, partner max 1 µM) | 0.719 | 0.173 | 0.965 | 0.68 | 0.239 | 0.202 | 0.161 | 0.194 | 0.102 | – | 0.199 | 0.526 | 0.133 | 1 | 0.286 | 0.195 | 0.45 | 0.366 | 0.163 | 0.175
NC1(C(=O)N[C@@H](CCO)c2ccc(Cl)cc2)CCN(c2ncnc3[nH]ccc23)CC1 [Capivasertib] + C[C@@H]1COCCN1C2=NC(=NC(=C2)C3(CC3)[S@](=N)(=O)C)C4=C5C=CNC5=NC=C4 [AZD6738] (first compound max 10 µM, 7x7, partner max 10 µM) | 0.88 | 0.852 | 0.34 | 1 | 0.673 | 0.581 | 0.545 | 0.769 | 0.631 | 0.962 | 0.751 | 0.657 | 0.372 | 0.896 | 0.448 | 0.555 | 0.616 | 0.545 | 0.651 | –
NC1(C(=O)N[C@@H](CCO)c2ccc(Cl)cc2)CCN(c2ncnc3[nH]ccc23)CC1 [Capivasertib] + CC(=O)c1c(C)c2cnc(Nc3ccc(N4CCNCC4)cn3)nc2n(C2CCCC2)c1=O [Palbociclib] (first compound max 10 µM, 7x7, partner max 10 µM) | 0.773 | 0.673 | 0.25 | 0.657 | 0.718 | 0.395 | 0.607 | 0.608 | 0.471 | 0.301 | 0.628 | 0.429 | 0.224 | 0.392 | 0.348 | 0.49 | 0.415 | 0.473 | 0.427 | –
CC(=O)c1c(C)c2cnc(Nc3ccc(N4CCNCC4)cn3)nc2n(C2CCCC2)c1=O [Palbociclib] + CC1(C)CCC(CN2CCN(c3ccc(C(=O)NS(=O)(=O)c4ccc(NCC5CCOCC5)c([N+](=O)[O-])c4)c(Oc4cnc5[nH]ccc5c4)c3)CC2)=C(c2ccc(Cl)cc2)C1 [Venetoclax] (first compound max 10 µM, 7x7, partner max 1 µM) | 0.814 | 0.0236 | 0.327 | 0.409 | 0.313 | 0.0711 | 0.478 | 0.357 | 0.105 | 0.42 | 0.153 | 0.115 | 0.164 | 0.283 | 0.224 | 0.475 | 0.194 | 0.385 | 0.28 | –
NC1(C(=O)N[C@@H](CCO)c2ccc(Cl)cc2)CCN(c2ncnc3[nH]ccc23)CC1 [Capivasertib] + CC(C)n1c(=O)n(C)c2cnc3cc(F)c(-c4ccc(OCCCN5CCCCC5)nc4)cc3c21 [AZD1390] (first compound max 10 µM, 7x7, partner max 0.3 µM) | 0.34 | 0.559 | 0.187 | 0.587 | 0.6 | 0.383 | 0.381 | 0.539 | 0.413 | 0.359 | 0.434 | 0.464 | 0.267 | 0.254 | 0.252 | 0.45 | 0.32 | 0.227 | 0.305 | –
NC1(C(=O)N[C@@H](CCO)c2ccc(Cl)cc2)CCN(c2ncnc3[nH]ccc23)CC1 [Capivasertib] + COc1nnc2ccc(N3CCC(c4ccc(OCCN5CCN(C)C(=O)[C@H]5C)cc4)CC3)nn12 [AZD5153] (first compound max 10 µM, 7x7, partner max 1 µM) | 0.729 | 0.75 | 0.164 | 0.828 | 0.695 | 0.395 | 0.572 | 0.605 | 0.486 | 0.478 | 0.937 | 0.712 | 0.0453 | 0.775 | 0.379 | 0.616 | 0.453 | 0.427 | 0.555 | –
C=CCn1c(=O)c2cnc(Nc3ccc(N4CCN(C)CC4)cc3)nc2n1-c1cccc(C(C)(C)O)n1 [AZD1775] + C[C@@H]1COCCN1C2=NC(=NC(=C2)C3(CC3)[S@](=N)(=O)C)C4=C5C=CNC5=NC=C4 [AZD6738] (first compound max 1 µM, partner max 10 µM) | 0.847 | 0.863 | 0.221 | 0.944 | 0.552 | 0.896 | 0.782 | 0.737 | 0.601 | – | 0.77 | 0.48 | 0.478 | 0.953 | 0.536 | 0.623 | 0.6 | 0.83 | 0.805 | 0.531
Cc1c2c(nn1C)CSCc1cc(n(C)n1)CSc1cc(c3ccccc3c1)OCCCc1c(C(=O)O)n(C)c3c-2c(Cl)ccc13 [AZD5991] + CCN(CCO)CCCOc1ccc2c(Nc3cc(CC(=O)Nc4cccc(F)c4)[nH]n3)ncnc2c1 [AZD2811] (first compound max 1 µM, 7x7, partner max 1 µM) | 0.328 | 0.896 | 0.56 | 0.655 | 0.416 | 0.713 | 0.553 | 0.325 | 0.273 | – | 0.178 | 0.307 | 0.181 | 0.615 | 0.31 | 0.349 | 0.321 | 0.512 | 0.824 | 0.508
CC(=O)c1c(C)c2cnc(Nc3ccc(N4CCNCC4)cn3)nc2n(C2CCCC2)c1=O [Palbociclib] + Cc1c2c(nn1C)CSCc1cc(n(C)n1)CSc1cc(c3ccccc3c1)OCCCc1c(C(=O)O)n(C)c3c-2c(Cl)ccc13 [AZD5991] (first compound max 10 µM, 7x7, partner max 1 µM) | 0.786 | 0.635 | 0.263 | 0.494 | 0.395 | 0.419 | 0.506 | 0.368 | 0.167 | 0.387 | 0.347 | 0.167 | 0.229 | 0.389 | 0.302 | 0.356 | 0.329 | 0.466 | 0.638 | –
CS(=O)(=O)CCNCc1ccc(-c2ccc3ncnc(Nc4ccc(OCc5cccc(F)c5)c(Cl)c4)c3c2)o1 [Lapatinib] + C[C@@H](Oc1cc(-c2cnn(C3CCNCC3)c2)cnc1N)c1c(Cl)ccc(F)c1Cl [Crizotinib] (first compound max 10 µM, 7x7, partner max 10 µM) | 0.966 | 0.907 | 0.25 | 0.956 | 0.903 | 0.906 | 0.931 | 0.882 | 0.943 | 0.755 | 0.584 | 0.441 | 0.248 | 0.949 | 0.6 | 0.837 | 0.718 | 0.921 | 0.921 | –
NC1(C(=O)N[C@@H](CCO)c2ccc(Cl)cc2)CCN(c2ncnc3[nH]ccc23)CC1 [Capivasertib] + Cn1cnc2c(F)c(Nc3ccc(Br)cc3Cl)c(C(=O)NOCCO)cc21 [Selumetinib] (first compound max 10 µM, 7x7, partner max 10 µM) | 0.426 | 0.89 | 0.301 | 0.682 | 0.753 | 0.425 | 0.767 | 0.674 | 0.576 | 0.391 | 0.786 | 0.444 | 0.388 | 0.369 | 0.351 | 0.783 | 0.56 | 0.712 | 0.638 | –
CN(C)CCCOc1ccc(-c2ccc3ncc4c(c3c2)n(C2CCOCC2)c(=O)n4C)cn1 [AZD0156] + O=C(c1cc(Cc2n[nH]c(=O)c3ccccc23)ccc1F)N1CCN(C(=O)C2CC2)CC1 [Olaparib] (first compound max 3 µM, partner max 3 µM) | 0.16 | 0.186 | 0.255 | 0.524 | 0.282 | 0.315 | 0.209 | 0.319 | 0.62 | – | 0.349 | 0.21 | 0.205 | – | 0.328 | 0.225 | 0.122 | 0.337 | 0.324 | 0.261
